From PubChem BioAssay AID322 (DTP/NCI, 2004) come the findings set out here.

Several values for one entry are separate records, joined by “and”; a condition that tells them apart may be missing. Identical values can stand only once. Inconclusive results and toxic doses are left out.

In this experiment the test system is CD2F1 mice, P388/ADR leukemia ip, median survival T/C. As to the kind of experiment: NCI In Vivo Anticancer Drug Screen. Data for tumor model P388 Leukemia resistant to Adriamycin; NSC 123127, Developed at Scr 08 (intraperitoneal) in CD2F1 (CDF1) mice. Conditions: endpoint: median survival time, higher = longer survival. The protocol: The antitumor activity of compounds was measured in mice bearing transplantable tumors. Survival or tumor size were measured and the results are expressed as the measurement made in the treated group (T) divided by the measurement made in the vehicle treated control group (C). The tumor model used in this assay is P388 Leukemia resistant to Adriamycin; NSC 123127, Developed at Scr 08 (intraperitoneal) in CD2F1 (CDF1) mice

Where [1] appears, read: dose: 50.0 mg/kg/injection, schedule: Q01DX005 (ip), vehicle: Klucel (hydroxypropylcellulose) (HPC).

For the compound `NC(N)=NS(=O)(=O)c1ccc(NCc2c3ccccc3nc3ccccc23)cc1`, the T/C by setting is: (dose: 50.0 mg/kg/injection, schedule: Q04DX003 (ip), vehicle: Klucel (hydroxypropylcellulose) (HPC)) 101 % of control; (dose: 100.0 mg/kg/injection, schedule: Q04DX003 (ip), vehicle: Klucel (hydroxypropylcellulose) (HPC)) 97 % of control; (dose: 200.0 mg/kg/injection, schedule: Q04DX003 (ip), vehicle: Klucel (hydroxypropylcellulose) (HPC)) 100 % of control; (dose: 400.0 mg/kg/injection, schedule: Q04DX003 (ip), vehicle: Klucel (hydroxypropylcellulose) (HPC)) 87 % of control.

Turning to `COc1nc(C(Cl)(Cl)Cl)c(Cl)c(OC)c1Cl`, the T/C by setting is: under setting [1], 114 % of control; (dose: 90.0 mg/kg/injection, schedule: Q01DX005 (ip), vehicle: Klucel (hydroxypropylcellulose) (HPC)) 124 % of control.

Regarding `CC[C@@]1(O)CC(OC2CC(N3CCOCC3)C(O)C(C)O2)c2c(O)c3c(c(O)c2[C@H]1O)C(=O)c1cccc(O)c1C3=O` (stereo not given in full), where the note is “dose: 3.0 mg/kg/injection, schedule: Q04DX003 (iv), vehicle: saline”, the T/C is 160 % of control.

Regarding `CSC1SCC2C(=O)N(C)C(C(C)C)C(=O)OCC(NC(=O)c3cnc4ccccc4n3)C(=O)NC(C)C(=O)N(C)C1C(=O)N(C)C(C(C)C)C(=O)OCC(NC(=O)c1cnc3ccccc3n1)C(=O)NC(C)C(=O)N2C` (stereo not given), the T/C (dose: 44.0 micrograms/kg/injection, schedule: Q01DX005 (ip), vehicle: saline) is 152 % of control; the T/C (dose: 100.0 micrograms/kg/injection, schedule: Q01DX005 (ip), vehicle: saline) is 151 % of control; the T/C (dose: 150.0 micrograms/kg/injection, schedule: Q01DX005 (ip), vehicle: saline) is 152 % of control.

`CCOc1ccc(-c2nc3ccc(-c4nc5ccc(N6CCN(C)CC6)cc5[nH]4)cc3[nH]2)cc1`: the T/C (dose: 1.56 mg/kg/injection, schedule: Q01DX005 (ip), vehicle: water) was 109 % of control; the T/C (dose: 3.12 mg/kg/injection, schedule: Q01DX005 (ip), vehicle: water) was 106 % of control; the T/C (dose: 6.25 mg/kg/injection, schedule: Q01DX005 (ip), vehicle: water) was 107 % of control; the T/C (dose: 12.5 mg/kg/injection, schedule: Q01DX005 (ip), vehicle: water) was 91 % of control.

Take `CN(C)/N=N/c1nc[nH]c1C(N)=O`: the T/C was 112 % of control (dose: 25.0 mg/kg/injection, schedule: Q01DX009 (ip), vehicle: distilled water + Tween-80); 124 % of control (dose: 50.0 mg/kg/injection, schedule: Q01DX009 (ip), vehicle: distilled water + Tween-80); 166 % of control (dose: 100.0 mg/kg/injection, schedule: Q01DX009 (ip), vehicle: distilled water + Tween-80); 158 % of control and 178 % of control (dose: 200.0 mg/kg/injection, schedule: Q01DX009 (ip), vehicle: distilled water + Tween-80); 201 % of control and 123 % of control (dose: 400.0 mg/kg/injection, schedule: Q01DX009 (ip), vehicle: distilled water + Tween-80).

For the compound `COc1cccc2c1C(=O)c1c(O)c3c(c(O)c1C2=O)C[C@@](O)(C(=O)CO)C[C@@H]3OC1CC(N2CCOCC2)C(O)C(C)O1` (stereo not given in full), the T/C runs as follows: (dose: 22.0 micrograms/kg/injection, schedule: Q04DX003 (iv), vehicle: saline + alcohol) 107 % of control; (dose: 33.0 micrograms/kg/injection, schedule: Q04DX003 (iv), vehicle: saline + alcohol) 105 % of control; (dose: 50.0 micrograms/kg/injection, schedule: Q04DX003 (iv), vehicle: saline + alcohol) 102 % of control; (dose: 75.0 micrograms/kg/injection, schedule: Q04DX003 (iv), vehicle: saline + alcohol) 101 % of control.

Turning to `CO[C@@]12[C@@H]3N[C@@H]3CN1C1=C(C(=O)C(N3CCCC3)=C(C)C1=O)[C@@H]2COC(N)=O`, the T/C reads like this: (dose: 3.75 mg/kg/injection, schedule: Q01DX005 (ip), vehicle: saline with Tween-80) 122 % of control; (dose: 10.4 mg/kg/injection, schedule: Q01DX005 (ip), vehicle: saline with Tween-80) 122 % of control; (dose: 12.5 mg/kg/injection, schedule: Q01DX005 (ip), vehicle: saline with Tween-80) 117 % of control and 120 % of control; (dose: 17.4 mg/kg/injection, schedule: Q01DX005 (ip), vehicle: saline with Tween-80) 113 % of control.

As for `COC1CC2C=C(C)/C=C/C=C/C(=O)NC(c3ccccc3)C/C=C/CCC(O)CC(=O)C2=C1O` (stereo not given), the T/C (dose: 3.12 mg/kg/injection, schedule: Q01DX005 (ip), vehicle: Klucel (hydroxypropylcellulose) (HPC)) is 101 % of control and the T/C (dose: 6.25 mg/kg/injection, schedule: Q01DX005 (ip), vehicle: Klucel (hydroxypropylcellulose) (HPC)) is 116 % of control.

For `O=C(O)c1cc(C(=O)O)c(C(=O)O)cc1C(=O)O.[NH2-].[NH2-].[NH2-].[NH2-].[Pt+2].[Pt+2]`, the T/C was 123 % of control (dose: 3.12 mg/kg/injection, schedule: Q01DX005 (ip), vehicle: saline); 167 % of control (dose: 25.0 mg/kg/injection, schedule: Q01DX005 (ip), vehicle: saline); 150 % of control (dose: 25.0 mg/kg/injection, schedule: Q01DX005 (ip), vehicle: suspension in saline); 178 % of control (dose: 41.67 mg/kg/injection, schedule: Q01DX005 (ip), vehicle: suspension in saline).

Consider `CC1(C)N=C(N)N=C(N)N1c1ccc(CCCCc2ccc(S(=O)(=O)F)cc2Cl)c(Cl)c1`, for which the T/C is 87 % of control (dose: 18.0 mg/kg/injection, schedule: Q01DX009 (ip), vehicle: saline with Tween-80); 89 % of control and 101 % of control (dose: 27.0 mg/kg/injection, schedule: Q01DX009 (ip), vehicle: saline with Tween-80); 88 % of control and 102 % of control (dose: 40.0 mg/kg/injection, schedule: Q01DX009 (ip), vehicle: saline with Tween-80); 112 % of control (dose: 60.0 mg/kg/injection, schedule: Q01DX009 (ip), vehicle: saline with Tween-80); 91 % of control and 110 % of control (dose: 90.0 mg/kg/injection, schedule: Q01DX009 (ip), vehicle: saline with Tween-80); 115 % of control (dose: 110.0 mg/kg/injection, schedule: Q01DX009 (ip), vehicle: saline with Tween-80).

With `CN(C)CCN1C(=O)c2cccc3cc(N)cc(c23)C1=O`, the T/C by setting is: (dose: 7.0 mg/kg/injection, schedule: Q01DX009 (ip), vehicle: saline with Tween-80) 109 % of control and 117 % of control; (dose: 11.0 mg/kg/injection, schedule: Q01DX009 (ip), vehicle: saline with Tween-80) 116 % of control; (dose: 16.0 mg/kg/injection, schedule: Q01DX009 (ip), vehicle: saline with Tween-80) 106 % of control and 113 % of control; (dose: 24.0 mg/kg/injection, schedule: Q01DX009 (ip), vehicle: saline with Tween-80) 112 % of control and 116 % of control.

Consider `C=C1c2cccc(O)c2C(O)=C2C(=O)[C@]3(O)C(O)=C(C(N)=O)C(=O)[C@@H](N(C)C)[C@@H]3[C@@H](O)[C@H]12`, for which the T/C runs as follows: (dose: 21.6 mg/kg/injection, schedule: Q01DX005 (ip), vehicle: Klucel (hydroxypropylcellulose) (HPC)) 114 % of control; (dose: 25.0 mg/kg/injection, schedule: Q01DX005 (ip), vehicle: Klucel (hydroxypropylcellulose) (HPC)) 109 % of control; (dose: 36.0 mg/kg/injection, schedule: Q01DX005 (ip), vehicle: Klucel (hydroxypropylcellulose) (HPC)) 97 % of control and 100 % of control; under setting [1], 118 % of control; (dose: 60.0 mg/kg/injection, schedule: Q01DX005 (ip), vehicle: Klucel (hydroxypropylcellulose) (HPC)) 226 % of control and 100 % of control; (dose: 100.0 mg/kg/injection, schedule: Q01DX005 (ip), vehicle: Klucel (hydroxypropylcellulose) (HPC)) 99 % of control and 112 % of control. For the same compound, the T/C was 117 % of control (dose: 166.66 mg/kg/injection, schedule: Q01DX005 (ip), vehicle: Klucel (hydroxypropylcellulose) (HPC)) and 119 % of control (dose: 200.0 mg/kg/injection, schedule: Q01DX005 (ip), vehicle: Klucel (hydroxypropylcellulose) (HPC)).

As for `[CH3][Sn]([CH3])([Cl])[c]1cc[c]([Sn]([CH3])([CH3])[Cl])cc1`, the T/C is, setting by setting: (dose: 0.19 mg/kg/injection, schedule: Q01DX005 (ip), vehicle: suspension in saline) 96 % of control; (dose: 0.39 mg/kg/injection, schedule: Q01DX005 (ip), vehicle: suspension in saline) 105 % of control; (dose: 0.78 mg/kg/injection, schedule: Q01DX005 (ip), vehicle: suspension in saline) 114 % of control; (dose: 1.56 mg/kg/injection, schedule: Q01DX005 (ip), vehicle: suspension in saline) 114 % of control.

With `O=C1C=C(N2CC2)C(=O)C(N2CC2)=C1N1CC1`, the T/C by setting is: (dose: 0.02 mg/kg/injection, schedule: Q01DX005 (ip), vehicle: saline) 180 % of control; (dose: 0.04 mg/kg/injection, schedule: Q01DX005 (ip), vehicle: saline) 176 % of control and 223 % of control; (dose: 0.08 mg/kg/injection, schedule: Q01DX005 (ip), vehicle: saline) 240 % of control and 294 % of control; (dose: 0.16 mg/kg/injection, schedule: Q01DX005 (ip), vehicle: saline) 233 % of control and 294 % of control; (dose: 0.32 mg/kg/injection, schedule: Q01DX005 (ip), vehicle: saline) 87 % of control and 110 % of control.
